The values that follow come from article PMC6150226, “Inhibition of Human Kallikrein 5 Protease by Triterpenoids from Natural Sources” (Molecules : A Journal of Synthetic Chemistry and Natural …, 2017).

Read-outs that look alike come from different tables or passages of the source.

One series has as its target T1, recombinant human KLK5 (Homo sapiens, UniProt Q9Y337).
T1 construct: purchased R & D Systems Inc
T1 sequence (Q9Y337 23-293): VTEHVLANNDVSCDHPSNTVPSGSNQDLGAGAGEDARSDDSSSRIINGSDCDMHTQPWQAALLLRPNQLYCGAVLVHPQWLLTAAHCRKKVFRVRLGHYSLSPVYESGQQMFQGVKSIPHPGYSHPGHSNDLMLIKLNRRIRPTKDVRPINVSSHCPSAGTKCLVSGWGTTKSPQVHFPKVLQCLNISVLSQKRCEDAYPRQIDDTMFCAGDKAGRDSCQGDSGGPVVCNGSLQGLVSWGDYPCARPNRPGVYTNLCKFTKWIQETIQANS
Kind of series: KLK5 enzymatic assay (Boc-V-P-R-AMC fluorogenic substrate). The class given is biochemical. Particulars: for IC50: dose-response experiment of Figure 2, read-out: IC50 anti-KLK5 activity.

The nature of series [1]: Plasma pharmacokinetics of triterpenoids in rats after oral Jumihaidokuto (LC-MS/MS). In kind it is in vivo. Particulars: rat, single oral Jumihaidokuto 2 g/10 mL/kg. The protocol: Male Sprague–Dawley rats were purchased from Charles River Laboratories (Yokohama, Japan). The plasma pharmacokinetic study was performed according to the “Guidelines for the Care and Use of Laboratory Animals” of Tsumura & Co. Ethical approval for experimental procedures was obtained from the Laboratory Animal Committee of Tsumura & Co. Jumihaidokuto (JHT, Lot No. 332031900) was supplied by Tsumura & Co. (Tokyo, Japan) in the form of a powdered extract. JHT prepared in distilled water was orally administered to 16-h fasted rats at 2 g/10 mL/kg (n = 3). […] Plasma was obtained by centrifugation at 1700 g for 15 min at 4 °C and stored at −80 °C until further processing. […] Twenty-five microliters of methanol, an equal volume of atropine (2 ng/mL; Wako Pure Chemical Industries) as internal standard, and 750 µL of methanol were added to 200 µL of plasma samples, followed by mixing and centrifugation (7000× g, 5 min). For the preparation of the calibration curve, the same volumes of various concentrations of working solution were used instead of methanol. The supernatant was dried at 40 °C under a stream of nitrogen gas. The dried residue was dissolved in 50–60 μL of the initial mobile phase used for liquid chromatography–mass spectrometry with a tandem mass spectrometry system (LC-MS/MS; API4000 or Triple Quad 6500; AB Sciex, Tokyo, Japan) and then a 10- or 20-μL portion was injected into the LC-MS/MS system for the quantification of triterpenoids.

The subject of series [2] is recombinant human trypsin. Kind of series: Trypsin enzymatic assay (Boc-V-P-R-AMC). The class given is biochemical. The conditions noted are these: for IC50: 0.78-100 μM, linear interpolation. On the procedure: (§1) KLK5, KLK7, trypsin, and chymotrypsin C activities were evaluated according to the following methods supplied by R & D Systems Inc. (Minneapolis, MN, USA). The enzyme activity-dependent increase in the relative fluorescent unit (RFU) was measured, and the percentage of inhibition was calculated based on the formula: (1 − (A − B)/(C − B)) × 100, where A = RFU of test samples with enzymes, B = basal RFU without enzymes, and C = RFU of vehicle controls with enzymes.
To measure the trypsin activity, enzymatic reaction was performed at room temperature in 100 mM NaH2PO4 buffer (pH 8.0) containing 0.25 μg/mL recombinant human trypsin (Wako Pure Chemical Industries), 100 μM of Boc-V-P-R-AMC Fluorogenic Peptide Substrate, and 1.1% DMSO at final concentrations. […] was preincubated with test samples for 5 min, followed by the addition of peptide substrate. After incubating for 1 min, RFU was measured at Ex 380 nm/Em 460 nm. Leupeptin hemisulfate (42.1 μM) was used as a positive control.

Series [3] concerns the target T2, recombinant human pro-chymotrypsin C activated by trypsin (Chymotrypsin C) (Homo sapiens, UniProt Q99895).
T2 construct: purchased R & D Systems Inc
Kind of series: Chymotrypsin C enzymatic assay (Suc-A-A-P-F-AMC). In kind it is biochemical. The protocol:
as §1, with “enzymes. […] Activated chymotrypsin C (final 34.7 nM) was preincubated with test samples for 5 min, followed by the addition of peptide substrate. After incubating for 60 min, RFU was measured at Ex 380 nm/Em 460 nm.” for “enzymes.”

The subject of series [4] is LL-37 production in normal human epidermal keratinocytes (NHEKs). In kind it is cell-based. The conditions noted are these: ursolic acid 0.5 and 5 μM, tumulosic acid 1 and 10 μM; 23 h; in the presence of 10 μM cycloheximide.
Setting [5] is: 10 μM test compound, KLK5 8.1 nM, substrate 100 μM, mean ± SEM of triplicate.
Setting [6] is: 10 μM test compound, KLK5 8.1 nM, substrate 100 μM, mean ± SEM of triplicate, read-out: Anti-KLK5 Activity % Inhibition.

T2 sequence (Q99895 30-268, other chains not shown): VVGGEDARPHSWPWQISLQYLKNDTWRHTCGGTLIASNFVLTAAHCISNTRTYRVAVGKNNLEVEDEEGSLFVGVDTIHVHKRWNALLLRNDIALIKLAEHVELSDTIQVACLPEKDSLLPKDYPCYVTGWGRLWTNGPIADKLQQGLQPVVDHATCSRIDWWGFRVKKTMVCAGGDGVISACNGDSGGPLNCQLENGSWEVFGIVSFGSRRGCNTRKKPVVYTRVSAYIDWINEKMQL

In the case of `CC1(C(=O)O)CCC2(C)CCC3(C)C(=CC(=O)C4C5(C)CCC(O)C(C)(C)C5CCC43C)C2C1` (stereo not drawn) [18β-Glycyrrhetinic acid], the inhibition at 30 µM on recombinant human KLK5 (30 μM, KLK5 8.1 nM, substrate 100 μM, mean ± SEM of triplicate, read-out: Anti-KLK5 Activity % Inhibition) amounted to 16 ± 1.2%.
Consider `C=C(C)[C@@H]1CC[C@]2(C(=O)O)CC[C@]3(C)[C@H](CC[C@@H]4[C@@]5(C)CC[C@H](O)C(C)(C)[C@@H]5CC[C@]43C)[C@@H]12` [Betulinic acid], for which the “Anti-KLK5 Activity % Inhibition” value at recombinant human KLK5 (setting [5]) is “did not influence the KLK5 activity”. For the same molecule, at recombinant human KLK5 (setting [6]), the inhibition at 10 µM came out at 5.5 ± 2.5%.
Regarding `C=C(CC[C@@H](C(=O)O)C1[C@H](O)C[C@@]2(C)C3=CCC4C(C)(CCC(OC(C)=O)C4(C)C)C3=CCC12C)C(C)C` (stereo partly shown) [Dehydropachymic acid], the inhibition at 10 µM at recombinant human KLK5 (setting [6]) stood at 33.9 ± 3.7%.
As for `C=C(CC[C@@H](C(=O)O)[C@H]1[C@H](O)C[C@@]2(C)C3=CC[C@H]4C(C)(C)[C@@H](O)CC[C@]4(C)C3=CC[C@]12C)C(C)C` [Dehydrotumulosic acid], on recombinant human KLK5 (setting [6]), the inhibition at 10 µM was -46.2 ± 2.7%.
For `C[C@@H]1C[C@H]2[C@@H]3CCC4=CC(=O)C=C[C@]4(C)[C@@]3(F)[C@@H](O)C[C@]2(C)[C@@]1(O)C(=O)CO` [Dexamethasone, reference compound], the “Anti-KLK5 Activity % Inhibition” value at recombinant human KLK5 (setting [5]) is “did not influence the KLK5 activity”. Also, the inhibition at 10 µM at recombinant human KLK5 (setting [6]) was -1.8 ± 2.8%.
For the molecule `C=C(CC[C@@H](C(=O)O)[C@H]1CC[C@@]2(C)C3=C(CC[C@]12C)[C@@]1(C)CC[C@H](O)C(C)(C)[C@@H]1CC3)C(C)C` [Eburicoic acid], the inhibition at 10 µM at recombinant human KLK5 (setting [6]) is -51 ± 3%.
For the molecule `CC(=O)N[C@@H](CC(C)C)C(=O)N[C@@H](CC(C)C)C(=O)N[C@H](C=O)CCCN=C(N)N.CC(=O)N[C@@H](CC(C)C)C(=O)N[C@@H](CC(C)C)C(=O)N[C@H](C=O)CCCN=C(N)N.O=S(=O)(O)O` [Leupeptin hemisulfate, reference compound], the “Anti-KLK5 Activity % Inhibition” value on recombinant human KLK5 (42.1 μM (positive control), KLK5 8.1 nM, mean ± SEM of triplicate) is given as 96.9 ± 0.1%; at recombinant human KLK5 (42.1 μM (positive control), KLK5 8.1 nM, mean ± SEM of triplicate, listed as leupeptin hemisulfate), “completely inhibited”.
On to `CC1(C)CC[C@]2(C(=O)O)CC[C@]3(C)C(=CC[C@@H]4[C@@]5(C)CC[C@H](O)C(C)(C)[C@@H]5CC[C@]43C)[C@@H]2C1` [Oleanolic acid], for which the IC50 on recombinant human KLK5 is 6.4 µM.
As to `C=C(CC[C@@H](C(=O)O)[C@H]1[C@H](O)C[C@@]2(C)C3=C(CC[C@]12C)[C@@]1(C)CC[C@H](OC(C)=O)C(C)(C)[C@@H]1CC3)C(C)C` [Pachymic acid], the inhibition at 10 µM on recombinant human KLK5 (setting [6]) was determined as 56.2 ± 1.5%. For the same molecule, the IC50 on recombinant human KLK5 worked out at 5.9 µM. This molecule displayed a peak concentration (Cmax) in series [1] (male, Sprague-Dawley, plasma, 2 g/kg) of 2.1 ng/mL. For the same molecule, in series [1], the “time of Cmax” value is reported as 6 h.
With `CC1(C)CCC2(C(=O)O)C(C1)C1=CCC3C4(C)CC(O)C(O)C(CO)(CO)C4CCC3(C)[C@]1(C)C[C@H]2O` (stereo partly shown) [Platycodigenin], the inhibition at 10 µM at recombinant human KLK5 (setting [6]) was 8.8 ± 2%.
The same measure, in the same setting: as for `C[C@@H]1O[C@@H](O[C@H]2[C@H](OC(=O)[C@]34CCC(C)(C)C[C@H]3C3=CC[C@@H]5[C@@]6(C)C[C@H](O)[C@H](O[C@@H]7O[C@H](CO)[C@@H](O)[C@H](O)[C@H]7O)C(CO)(CO)[C@@H]6CC[C@@]5(C)[C@]3(C)C[C@H]4O)OC[C@H](O)[C@@H]2O)[C@H](O)[C@H](O)[C@H]1O[C@@H]1OC[C@@H](O)[C@H](O[C@@H]2OC[C@](O)(CO)[C@H]2O)[C@H]1O` [Platycodin D], the figure is -6 ± 2.9%.
Consider `CC1(C)CCC2(C(=O)O)C(O)CC3(C)C(=CCC4C5(C)CC(O)C(O)C(C)(CO)C5CCC43C)C2C1` (stereo not shown) [Polygalacic acid], for which the “Anti-KLK5 Activity % Inhibition” value at recombinant human KLK5 (setting [5]) is given as “did not influence the KLK5 activity”. The inhibition at 10 µM at recombinant human KLK5 (setting [6]) came to 5.5 ± 2.3%.
With `CC1(C)CCC2(CO)C(=C3C=CC4C5(C)CCC(O)C(C)(CO)C5CCC4(C)C3(C)CC2O)C1` (stereo not shown) [Saikogenin A], at recombinant human KLK5 (setting [5]), the “Anti-KLK5 Activity % Inhibition” value was 24.3 ± 2.6%.
The same measure, in the same setting: the figure for `CC1(C)CCC2(CO)C(=C3C=CC4C5(C)CCC(O)C(C)(CO)C5CCC4(C)C3(C)CC2O)C1` (stereo not shown) [Saikogenin D] is −1.5 ± 3.6%.
Take `C[C@H]1O[C@@H](O[C@H]2CC[C@@]3(C)[C@@H](CC[C@]4(C)[C@@H]3C=C[C@]35OC[C@@]6(CCC(C)(C)C[C@H]63)[C@@H](O)C[C@]54C)[C@]2(C)CO)[C@H](O)[C@@H](O[C@@H]2O[C@H](CO)[C@@H](O)[C@H](O)[C@H]2O)[C@H]1O` [Saikosaponin a]: the inhibition at 10 µM on recombinant human KLK5 (setting [6]) came out at 4.3 ± 0.7%.
As to `C[C@H]1O[C@@H](O[C@H]2CC[C@@]3(C)[C@@H](CC[C@]4(C)[C@@H]3C=CC3=C5CC(C)(C)CC[C@]5(CO)[C@@H](O)C[C@]34C)[C@]2(C)CO)[C@H](O)[C@@H](O[C@@H]2O[C@H](CO)[C@@H](O)[C@H](O)[C@H]2O)[C@H]1O` [Saikosaponin b1], the inhibition at 10 µM at recombinant human KLK5 (setting [6]) turned out to be 39.6 ± 1.6%. In addition, the IC50 at recombinant human KLK5 was found to be 14.4 µM.
As for `CC1OC(OC2CCC3(C)C(CCC4(C)C3C=CC3=C5CC(C)(C)CCC5(CO)C(O)CC34C)C2(C)CO)C(O)C(OC2OC(CO)C(O)C(O)C2O)C1O` (stereo not shown) [Saikosaponin b2], the “Anti-KLK5 Activity % Inhibition” value at recombinant human KLK5 (setting [5]) stood at 21.1 ± 1.4%.
With `CC1OC(OC2C(COC3OC(CO)C(O)C(O)C3O)OC(OC3CCC4(C)C(CCC5(C)C4C=CC46OCC7(CCC(C)(C)CC74)[C@@H](O)C[C@@]56C)C3(C)C)C(O)C2O)C(O)C(O)C1O` (stereo partly shown) [Saikosaponin c], at recombinant human KLK5 (setting [6]), the inhibition at 10 µM was 4.1 ± 1.6%.
Same read-out and setting: the figure for `CC1OC(OC2CCC3(C)C(CCC4(C)C3C=CC35OCC6(CCC(C)(C)CC63)C(O)CC45C)C2(C)CO)C(O)C(OC2OC(CO)C(O)C(O)C2O)C1O` (stereo not shown) [Saikosaponin d] is -10.4 ± 3.5%.
For the molecule `C[C@H]1[C@H](C)CC[C@]2(C(=O)O)CC[C@]3(C)C(=CC[C@@H]4[C@@]5(C)CC[C@H](O)C(C)(C)[C@@H]5CC[C@]43C)[C@H]12` [Ursolic acid], on recombinant human KLK5 (read-out: Anti-KLK5 Activity % Inhibition), the inhibition at 10 µM came to 54.6 ± 1.3%. The “Inhibition % at 100 μM, Trypsin” value in series [2] (100 μM) amounted to 76.9 ± 3.5%. Also, the 50% inhibitory concentration (IC50) in series [2] (listed as Ursolic Acid) was 14.8 µM; in series [2] (listed as ursolic acid), 10.5 µM; in series [3] (0.78-100 μM, linear interpolation), over 100 µM. Further, the inhibition at 100 µM in series [3] (100 μM) stood at 35.3 ± 2.9%. In addition, in series [4], the “amount of LL-37 in NHEK lysates” value is listed as “decreased”.
